Source: patent US12649748B2, “Wee1 inhibitor and use thereof” (JIANGSU TASLY DIYI PHARMACEUTICAL CO., LTD., priority 2021, dated 2026)
Like-named read-outs stand apart in the source and are kept apart here.

Experiments:
[1] = Metabolic stability of liver microsomes in vitro (mouse); assay type: in vitro ADME; settings: read-out: Mouse T1/2/min
Method: Microsomes were taken out from the −80° C. refrigerator, rapidly melted in a 37° C. water bath and placed on ice until ready to use. The test article was diluted with DMSO to prepare a 10 mM stock solution, and then diluted with acetonitrile to a 0.5 mM secondary stock solution. The microsomes were diluted to 0.75 mg/ml using Buffer C; the secondary stock solution was then added to a final concentration of 1.5 μM of compound as working solution, based on n=2, 5 time points, 350 μL of each compound was prepared and placed on ice prior to use. NADPH was diluted with Buffer C to a working solution of 6 mM for the starter solution. An acetonitrile solution containing an internal standard was prepared as the precipitant, and Verapamil-HCl was chosen as the internal standard at a concentration of 4 ng/ml.
A round-bottom well plate was taken, noted as the reaction plate, and the prepared working solution for each compound was dispensed into the well plate according to the number of replicates and time points (0 h samples are also added to the reaction plate), 30 μL/well; the plate was incubated at 37° C. for 10 min. A separate plate with pointed bottom wells, noted as a precipitation plate, was added with 135 μL precipitant per well; 0 h samples were transferred to the plate after 10 min incubation and 15 μL of starter solution was added; the plate was placed on ice before centrifugation.
The diluted starter solution was added in sufficient quantity to the dispensing plate to facilitate the multichannel pipette aspiration operation.
The reaction was carried out on a warm incubation shaker and 15 μL of starter solution/sample is added to the plate using a multichannel pipette. The reaction was mixed with a slight shake to initiate the reaction, which was accurately timed and recorded using a timer;
After the reaction time had elapsed, all the solution in the plate was aspirated using the multichannel pipette and added to the precipitation plate to terminate the reaction at that point in time. After all reactions had been terminated, the plates were shaken for ten minutes on a plate shaker at 600 rpm to precipitate the protein. The plate was centrifuged at 4° C. for 15 minutes at maximum rpm. 80 μL of supernatant was taken, 320 μL of pure water was added and mixed for LC-MS analysis.

[2] = Plasma protein binding (PPB), rat; assay type: in vitro ADME; settings: 5 h dialysis, read-out: Plasma protein binding rate (%) Rat (converted)
Method: Sample preparation: The compound was dissolved in DMSO to a stock solution of 10 mM, then the compound was diluted with PBS to a secondary stock solution of 0.02 mM, and then the above 0.02 mM was diluted to 1 μM using blank plasma, which was the sample to be incubated.
Dialysis set-up preparation: 400 μL of blank PBS was first added to the white wells of the equilibrated dialysis plate and 200 μL of the configured plasma sample was added to the red wells, and the dialysis plate was sealed with a sealing film.
Recovery plate preparation: Two 96-well deep-well plates, labelled T0 and T5, were prepared and all plasma samples were added at n=2. 300 μL of acetonitrile (Verapamil-HCl, 4 ng/mL) was added directly to the TO plate, followed by 50 μL of blank PBS mix well for 5 min and left to stand in a 4° C. refrigerator until the end of the incubation.
Experimental Operation: The dialysis device and the T5 plate were incubated together for 5 h in a microplate thermostatic shaker (37° C., using 300 rpm or minimum speed). At the end of the incubation, 300 μL of acetonitrile (Verapamil-HCl, 4 ng/mL) was added and 50 μL of PBS solution was added. At the end of the dialysis incubation, a new 96-well deep well plate was taken. Add 50 μL of plasma well sample to the corresponding position of the 96-well plate, 300 μL of acetonitrile and 50 μL of blank PBS; take 50 μL of buffer well sample to the corresponding position of the 96-well plate, then add 300 μL of acetonitrile and 50 μL of blank plasma. Add 300 μL of acetonitrile (Verapamil-HCl, 4 ng/mL) to the plasma-containing wells of the T5 plate, and then 50 μL of PBS solution was added. Shake for 5 min to fully precipitate the proteins and centrifuge at 20,000 g for 10 min at 4° C. Add 200 μL of supernatant to 200 μL of pure water, mix well and perform LC-MS/MS analysis.
2. Data Processing and Parameter Calculation Plasma protein binding rate=[(Rpe−Rb)/Rpe]×100% Recovery=[(Rpe+Rb)/R5h]×100% Stability=(R5/R0)×100% where • Rpe=ratio of plasma-side testing sample peak area to internal standard • Rb=ratio of buffer side testing sample peak area to internal standard • R5=ratio of incubator stability sample peak area to internal standard • R0=ratio of refrigerator stability sample peak area to internal standard 3.

[3] = tested on: H1299 cells; test: Anti-proliferative effect by Cell Titer-Glo, H1299; assay type: cell-based; settings: Homo sapiens, NCI-H1299, 72 h, read-out: IC50 measured value H1299
Method: Compound solutions of different concentration gradients were prepared. DMSO was dissolved to a concentration of 10 mM test compound and 10 mM reference compound AZD1775, and the compounds were serially diluted in culture medium for a total of 9 dose points, with 2 parallel replicates set at each concentration. The cell growth group without compound was used as a positive control (maximum signal control) and the medium was used as a negative control (minimum signal control), while ensuring that the final level of DMSO in each reaction well was 0.2%. After removing the medium from the 384-well plate, 25 ul of the configured compound at different concentrations was transferred into the well plate and the compound and cells were incubated in the cell incubator at 37° C. with 5% CO2 for 3 days.
The 384-well plates were removed from the cell incubator and allowed to equilibrate for 1 h to room temperature. 25 ul of Cell Titer-Glo assay was added to each well, lysed on a shaker for 2 min and then read out (Luminescence) using a BMG PHERAStar after 10 min incubation. Calculate the inhibition rate from the luminescence signal: first calculate the average of the positive control (maximum signal control) and the negative control (minimum signal control).
[formula] to calculate the rate of inhibition of the cells by different concentrations of the compounds. The IC50 of the compound on cell activity inhibition was calculated by fitting a log(inhibitor) vs. response-Variable slope model to GraphPad Prism 6. The fitted equation was: Y=Bottom+(Top−Bottom)/(1+10^((Log IC50−X)*HillSlope)), where Y represents the rate of inhibition and X represents the concentration of the known compound after Log.

[4] = molecular target: CYP2C9 (Homo sapiens, UniProt P11712); test: Inhibition of cytochrome P450, CYP2C9; assay type: in vitro ADME; settings: CYP2C9 enzyme, pH 7.4, probe BOMCC, read-out: CYP inhibition/% 2C9; for inhibition at 30 min, 1 µM: compound concentration 1 μM; for inhibition at 30 min, 10 µM: compound concentration 10 μM
Chain of CYP2C9 (P11712 whole entry, canonical isoform): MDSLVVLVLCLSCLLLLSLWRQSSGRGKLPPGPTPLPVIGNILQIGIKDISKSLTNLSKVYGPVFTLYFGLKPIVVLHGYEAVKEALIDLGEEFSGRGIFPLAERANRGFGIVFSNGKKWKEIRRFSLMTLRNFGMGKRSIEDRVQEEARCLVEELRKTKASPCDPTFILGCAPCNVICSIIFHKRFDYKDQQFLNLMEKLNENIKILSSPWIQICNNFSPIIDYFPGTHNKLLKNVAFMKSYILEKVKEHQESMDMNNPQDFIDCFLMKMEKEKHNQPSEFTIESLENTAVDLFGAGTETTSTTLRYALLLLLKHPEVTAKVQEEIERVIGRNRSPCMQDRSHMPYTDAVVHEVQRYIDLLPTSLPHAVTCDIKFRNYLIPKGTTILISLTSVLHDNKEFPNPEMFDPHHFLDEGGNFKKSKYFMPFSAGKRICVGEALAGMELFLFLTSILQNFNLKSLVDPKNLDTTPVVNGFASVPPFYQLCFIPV
Method: Enzymatic experiments were performed to quantify the inhibition of CYP450 enzyme activity of each isoform of CYP450 by small molecule inhibitors through fluorescence generated by the oxidation of the substrate by cytochrome P450. […] The Solution B composition used for the experiment was: 40 U/mL G6PDH (Sigma-aldrich, Cat #G6378). The substrate mix was 0.05× Solution A, 0.01× Solution B, 50 mM Potassium Phosphate, 0.01 mM BOMCC/0.01 mM EOMCC/0.001 mM DBOMF. […] The data were analyzed and processed using GraphPad Prism 6 software to obtain IC50 values.

[5] = H1299 cells, 3 days, Cell Titer-Glo

half-life at 1 µM [1] [min] | fraction unbound at 5 h, 1 µM [2] | IC50 [3, 5] [nM] | inhibition at 30 min, 1 µM [4] [%] | inhibition at 30 min, 10 µM [4] [%] | SMILES | IC50 [3] [nM]
30.1 | 0.374 | 100 to 1000 | – | – | C=CCn1c(=O)c2cnc(Nc3ccc(N4CCN(C)CC4)cc3)nc2n1-c1cccc(C(C)(C)O)n1 [AZD-1775, reference compound] | –
15.6 | – | 1000 to 5000 | -10.6 | -16 | CN1CCN(c2ccc(Nc3ncc4cnn(-c5cccc(C(C)(C)O)n5)c4n3)cc2)CC1 [Compound 2] | –
– | – | 100 to 1000 | 15.3 | 13.1 | CS(C)(=O)=Nc1cccc(-n2ncc3cnc(Nc4ccc(N5CCOCC5)cc4)nc32)n1 [Compound 6] | –
67.3 | 0.246 | 100 to 1000 | – | – | Cc1cc(Nc2ncc3cnn(-c4cccc(N=S(C)(C)=O)n4)c3n2)ccc1N1CCC(N(C)C)CC1 [Compound 14] | –
8.9 | 0.179 | 100 to 1000 | – | – | Cc1cc(Nc2ncc3cnn(-c4cccc(N=S(C)(C)=O)n4)c3n2)ccc1N1CCN(C)CC1 [Compound 16] | –

SMILES | half-life at 1 µM [1] [min] | fraction unbound at 5 h, 1 µM [2] | IC50 [3, 5] [nM] | inhibition at 30 min, 1 µM [4] [%] | inhibition at 30 min, 10 µM [4] [%] | IC50 [3] [nM]
CN1CCN(c2ccc(Nc3ncc4cnn(-c5cccc(N=S(C)(C)=O)n5)c4n3)cc2)CC1 [Compound 1] | 60.3 | 0.404 | – | 7.5 | 18.6 | 1000 to 5000
